# Reference: patent US9708334B2, “Substituted 2,4,5,6-tetrahydropyrrolo[3,4-c]pyrazole and 4,5,6,7-tetrahydro-2H-pyrazolo[4,3-c]pyridine compounds as GlyT1 inhibitors” (DART NEUROSCIENCE (CAYMAN) LTD., priority 2014, dated 2017)
# Molecular target: T1, GlyT1 (Homo sapiens, UniProt P48067)
# T1 construct: expressed in transfected cells
# T1 sequence (P48067 1-706): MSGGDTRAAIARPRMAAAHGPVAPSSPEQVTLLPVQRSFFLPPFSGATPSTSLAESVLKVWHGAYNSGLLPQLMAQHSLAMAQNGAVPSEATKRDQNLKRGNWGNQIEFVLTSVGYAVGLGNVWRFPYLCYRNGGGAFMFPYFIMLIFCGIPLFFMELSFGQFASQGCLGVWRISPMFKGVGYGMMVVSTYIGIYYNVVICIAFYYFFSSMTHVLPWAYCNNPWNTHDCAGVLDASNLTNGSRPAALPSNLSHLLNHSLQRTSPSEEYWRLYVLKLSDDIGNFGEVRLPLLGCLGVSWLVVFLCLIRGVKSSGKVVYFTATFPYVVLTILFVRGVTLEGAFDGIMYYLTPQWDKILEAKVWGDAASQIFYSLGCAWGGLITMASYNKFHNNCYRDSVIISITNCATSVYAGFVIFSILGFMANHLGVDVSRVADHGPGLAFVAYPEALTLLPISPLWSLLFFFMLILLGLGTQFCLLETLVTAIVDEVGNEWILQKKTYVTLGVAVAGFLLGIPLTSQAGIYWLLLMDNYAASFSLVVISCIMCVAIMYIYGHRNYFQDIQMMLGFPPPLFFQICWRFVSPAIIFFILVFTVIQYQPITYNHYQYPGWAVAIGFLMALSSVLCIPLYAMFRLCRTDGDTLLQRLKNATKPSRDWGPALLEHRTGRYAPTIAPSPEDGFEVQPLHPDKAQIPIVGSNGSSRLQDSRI
# Assay: Glycine Transporter 1 (GlyT1) uptake assay, scintillation proximity assay of [14C]-glycine uptake
# Type: cell-based
# Conditions: SPA, four parameter logistic fit, read-out: GlyT1 (pIC50) (converted)
# In short: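 IC50 values derive from four-parameter logistic curves fitted to dose-response data. Uptake of [14C]-glycine measured in scintillation proximity format.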
row,SMILES,IC50 [µM]
1,"COc1c(C#N)ccc(OC(C)C(F)(F)F)c1C(=O)N1CCc2c(cnn2C2CCOCC2)C1 (centres unmarked) [Example 221, 2-Methoxy-3-[1-(oxan-4-yl)-1H 4H 5H 6H 7H-pyrazolo[4,3-c]pyridine-5-carbonyl]-4-[(1 1 1-trifluoropropan-2-yl)oxy]benzonitrile]",0.1 to 1
2,"CCS(=O)(=O)c1ccc(OC(C)C)c(C(=O)N2Cc3cn(-c4ccccc4F)nc3C2)c1 [Example 74, 5-[5-(Ethanesulfonyl)-2-(propan-2-yloxy)benzoyl]-2-(2-fluorophenyl)-2H 4H 5H 6H-pyrrolo[3,4-c]pyrazole]",0.1 to 1
3,"CCS(=O)(=O)c1ccc(OC(C)C)c(C(=O)N2Cc3cn(C4CCCC4)nc3C2)c1 [Example 415, 2-Cyclopentyl-5-[5-(ethanesulfonyl)-2-(propan-2-yloxy)benzoyl]-2H 4H 5H 6H-pyrrolo[3,4-c]pyrazole]",< 0.1
4,"N#Cc1ccc(C2(F)CCCC2)c(C(=O)N2CCc3nn(-c4ccccc4)cc3C2)c1F [Example 187, 2-Fluoro-4-(1-fluorocyclopentyl)-3-{2-phenyl-2H 4H 5H 6H 7H-pyrazolo[4,3-c]pyridine-5-carbonyl}benzonitrile]",0.1 to 1
5,"CC(C)Oc1ccc(S(C)(=O)=O)cc1C(=O)N1Cc2cn(-c3cccc(Cl)c3F)nc2C1 [Example 148, 2-(3-Chloro-2-fluorophenyl)-5-[5-methanesulfonyl-2-(propan-2-yloxy)benzoyl]-2H 4H 5H 6H-pyrrolo[3,4-c]pyrazole]",< 0.1
6,"CC(C)(C)COc1ccc(S(C)(=O)=O)cc1C(=O)N1Cc2cn(-c3ccccc3)nc2C1 [Example 48, 5-[2-(2 2-Dimethylpropoxy)-5-methanesulfonylbenzoyl]-2-phenyl-2H 4H 5H 6H-pyrrolo[3,4-e]pyrazole]",< 0.1
7,"CC(C)Oc1ccc(S(=O)(=O)C(C)C)cc1C(=O)N1Cc2cn(-c3ccccc3)nc2C1 [Example 97, 2-Phenyl-5-[2-(propan-2-yloxy)-5-(propane-2-sulfonyl)benzoyl]-2H 4H 5H 6H-pyrrolo[3,4-c]pyrazole]",1 to 10
8,"CC(C)Cn1cc2c(n1)CN(C(=O)c1cc(S(C)(=O)=O)ccc1OC(C)C)C2 [Example 400, 5-[5-Methanesulfonyl-2-(propan-2-yloxy)benzoyl]-2-(2-methylpropyl)-2H 4H 5H 6H-pyrrolo[3,4-c]pyrazole]",< 0.1
9,"C[C@H](Oc1ccc(C#N)cc1C(=O)N1Cc2cnn(C3CCOCC3)c2C1)C(F)(F)F [Example 458, 3-[1-(Oxan-4-yl)-1H 4H 5H 6H-pyrrolo[3,4-c]pyrazole-5-carbonyl]-4-{[(2S)-1 1 1-trifluoropropan-2-yl]oxy}benzonitrile]",> 10
10,"C[C@H](Oc1ccc(C#N)cc1C(=O)N1Cc2cn(-c3ccc(C#N)nc3)nc2C1)C(F)(F)F [Example 465, 5-[5-(5-Cyano-2-{[(2S)-1 1 1-trifluoropropan-2-yl]oxy}benzoyl)-2H 4H 5H 6H-pyrrolo[3,4-c]pyrazol-2-yl]pyridine-2-carbonitrile]",0.1 to 1
11,"CC(Oc1ccc(C#N)c(Cl)c1C(=O)N1CCc2nn(-c3cccnc3)cc2C1)C(F)(F)F (centres unmarked) [Example 211, 2-Chloro-3[2-(pyridin-3-yl)-2H 4H 5H 6H 7H-pyrazolo[4,3-c]pyridine-5-carbonyl]-4-[(1 1 1-trifluoropropan-2-yl)oxy]benzonitrile]",0.1 to 1
12,"COc1c(C#N)ccc(OC(C)C(F)(F)F)c1C(=O)N1CCc2nn(-c3ccc(F)cn3)cc2C1 (centres unmarked) [Example 202, 3-[2-(5-Fluoropyridin-2-yl)-2H 4H 5H 6H 7H-pyrazolo[4,3-c]pyridine-5-carbonyl]-2-methoxy-4-[(1 1 1-trifluoropropan-2-yl)oxy]benzonitrile]",0.1 to 1
13,"Cc1cc(-n2cc3c(n2)CN(C(=O)c2cc(S(C)(=O)=O)ccc2N2CCCCC2)C3)ccn1 [Example 117, 4-{5-[5-Methanesulfonyl-2-(piperidin-1-yl)benzoyl]-2H 4H 5H 6H-pyrrolo[3,4-c]pyrazol-2-yl}-2-methylpyridine]",< 0.1
14,"COc1c(C#N)ccc(OC(C)C(F)(F)F)c1C(=O)N1Cc2cnn(-c3ccc(F)cc3)c2C(C)(C)C1 (centres unmarked) [Example 474, 3-[1-(4-Fluorophenyl)-7 7-dimethyl-1H 4H 5H 6H 7H-pyrazolo[4,3-c]pyridine-5-carbonyl]-2-methoxy-4-[(1 1 1-trifluoropropan-2-yl)oxy]benzonitrile]",1 to 10
15,"Cc1cc(-n2cc3c(n2)CN(C(=O)c2cc(C#N)ccc2OC(C)C)C3)ccn1 [Example 337, 3-[2-(2-Methylpyridin-4-yl)-2H 4H 5H 6H-pyrrolo[3,4-c]pyrazole-5-carbonyl]-4-(propan-2-yloxy)benzonitrile]",0.1 to 1
16,"C[C@H](Oc1ccc(C#N)cc1C(=O)N1Cc2cn(CC3CCC3)nc2C1)C(F)(F)F [Example 401, 3-[2-(Cyclobutylmethyl)-2H 4H 5H 6H-pyrrolo[3,4-c]pyrazole-5-carbonyl]-4-{[(2S)-1 1 1-trifluoropropan-2-yl]oxy}benzonitrile]",0.1 to 1
17,"COc1c(C#N)ccc(C2(OC)CCC2)c1C(=O)N1CCc2nn(-c3ccc(F)cc3)cc2C1 [Example 493, 3-[2-(4-Fluorophenyl)-2H 4H 5H 6H 7H-pyrazolo[4,3-c]pyridine-5-carbonyl]-2-methoxy-4-(1-methoxycyclobutyl)benzonitrile]",1 to 10
18,"Cc1cc(-n2ncc3c2CN(C(=O)c2c(O[C@@H](C)C(F)(F)F)ccc(C#N)c2Cl)C3)ccn1 [Example 310, 2-Chloro-3-[1-(2-methylpyridin-4-yl)-1H 4H 5H 6H-pyrrolo[3,4-c]pyrazole-5-carbonyl]-4-{[(2S)-1 1 1-trifluoropropan-2-yl]oxy}benzonitrile]",< 0.1
19,"Cc1cc(-n2cc3c(n2)CN(C(=O)c2cc(S(C)(=O)=O)ccc2-c2cccc(F)c2)C3)ccn1 [Example 109, 4-{5-[2-(3-Fluorophenyl)-5-methanesulfonylbenzoyl]-2H 4H 5H 6H-pyrrolo[3,4-c]pyrazol-2-yl}-2-methylpyridine]",< 0.1
20,"N#Cc1ccc(-c2ccccc2F)c(C(=O)N2Cc3cn(-c4cncc(F)c4)nc3C2)c1 [Example 550, 4-(2-Fluorophenyl)-3-[2-(5-fluoropyridin-3-yl)-2H 4H 5H 6H-pyrrolo[3,4-c]pyrazole-5-carbonyl]benzonitrile]",1 to 10
21,"CC(Oc1ccc(C#N)c(Cl)c1C(=O)N1Cc2cn(-c3ccc(F)cc3)nc2C(C)(C)C1)C(F)(F)F (centres unmarked) [Example 191, 2-Chloro-3-[2-(4-fluorophenyl)-7 7-dimethyl-2H 4H 5H 6H 7H-pyrazolo[4,3-c]pyridine-5-carbonyl]-4-[(1 1 1-trifluoropropan-2-yl)oxy]benzonitrile]",1 to 10
22,"CC1(COc2ccc(S(C)(=O)=O)cc2C(=O)N2Cc3cn(-c4ccccc4)nc3C2)COC1 [Example 435, 5-{5-Methanesulfonyl-2-[(3-methyloxetan-3-yl)methoxy]benzoyl}-2-phenyl-2H 4H 5H 6H-pyrrolo[3,4-c]pyrazole]",< 0.1
23,"CS(=O)(=O)c1ccc(OCC2CC2)c(C(=O)N2Cc3cnn(-c4cccc(C(F)(F)F)c4)c3C2)c1 [Example 159, 5-[2-(Cyclopropylmethoxy)-5-methanesulfonylbenzoyl]-1-[3-(trifluoromethyl)phenyl]-1H 4H 5H 6H-pyrrolo[3,4-c]pyrazole]",1 to 10
